These results are taken from ChEMBL document CHEMBL1777777, “Design, synthesis of symmetrical bivalent mimetics of annonaceous acetogenins and their cytotoxicities” (Bioorg Med Chem Lett, 2011).

Molecules are shown by their SMILES. The source made the active and inactive calls. The rule behind the calls is not given here. Where only a bound is given, the exact number is not on record here.

By GI50 is commonly meant the concentration at which growth is held to half of that of the control.

One series deals with MCF7. As to the kind of experiment: Cytotoxicity against human MCF7 cells after 74 hrs by MTT assay. Format: functional. A general note: Formazan colour is commonly taken as a measure of viable cells.
The subject of a further series is HCT-116. As to the kind of experiment: Cytotoxicity against human HCT116 cells after 74 hrs by MTT assay. The class given is functional.
The nature of series [1]: Cytotoxicity against human BEAS2B cells after 74 hrs by MTT assay. Format: cell-based, BEAS-2B. The conditions noted are these: for GI50 at 74 h: BEAS2B cells; for GI50: beas-2b, 74 h.
Series [2] can be described thus: Cytotoxicity against human HLF cells after 74 hrs by MTT assay. Format: cell-based. The following applies: for GI50 at 74 h: HLF cells; for GI50: hlf, 74 h.
A further series concerns HT-29. As to the kind of experiment: Cytotoxicity against human HT-29 cells after 74 hrs by MTT assay. Format: functional.
A further series has as its system SGC-7901. As to the kind of experiment: Cytotoxicity against human SGC7901 cells after 74 hrs by MTT assay. Format: functional.

Consider `C[C@H]1C=C(CCCCCCCC(O)CN(C)CCN(C)CC(O)CCCCCCCC2=C[C@H](C)OC2=O)C(=O)O1` (mixture of isomers), for which the GI50 in the series on MCF7 (MCF7, 74 h) is 3.16 µM; with SGC-7901 (SGC-7901, 74 h) it was 6.22 µM. The GI50 entry in the series on HCT-116 and in the series with HT-29 was “inactive” each time. Further, the GI50 at 74 h in series [1] and in series [2] was more than 10 µM in each case.

Consider `C[C@H]1C=C(CCCCCCCC(O)CN2CCN(CC(O)CCCCCCCC3=C[C@H](C)OC3=O)CC2)C(=O)O1` (mixture of isomers), for which the GI50 in the series with MCF7 (MCF7, 74 h) was 2.19 µM; with HCT-116 (HCT-116, 74 h) it was 3.72 µM; in series [1], “Not Active”; with HT-29 (HT-29, 74 h) it was more than 10 µM; in the series on SGC-7901 (SGC-7901, 74 h), 1.67 µM. The 50% growth inhibitory concentration (GI50) at 74 h in series [2] was more than 10 µM.

In the case of `COC1=C(OC)C(=O)C(CCCCCCCCCN2CCN(CCCCCCCCCC3=C(C)C(=O)C(OC)=C(OC)C3=O)CC2)=C(C)C1=O`, the GI50 in the series with MCF7 (MCF7, 74 h) is 0.4 µM; with HCT-116 (HCT-116, 74 h), 0.5 µM; in the series on HT-29 (HT-29, 74 h), more than 10 µM; with SGC-7901 (SGC-7901, 74 h), 0.49 µM. Also, the GI50 at 74 h in series [1] and in series [2] was more than 10 µM each time.

For `C[C@H]1C=C(CCCCCCCC(O)CNCCCNCC(O)CCCCCCCC2=C[C@H](C)OC2=O)C(=O)O1` (mixture of isomers), the GI50 entry in the series with MCF7, in the series with HCT-116, with HT-29 and in the series with SGC-7901 was “inactive” throughout. In addition, the GI50 result in series [1] and in series [2] was “Not Active” each time.

Regarding `COc1c(C)c(CCCCCCCCCN2CCN(CCCCCCCCCc3c(C)c(OC)c(OC)c(OC)c3OC)CC2)c(OC)c(OC)c1OC`, the GI50 entry with MCF7, in the series with HCT-116, in the series with HT-29 and with SGC-7901 was “inactive” each time. The GI50 entry in series [1] and in series [2] was “Not Active” in each case.

For `CCCCCCCCCC[C@H](O)COCCOC[C@@H](O)CCCCCCCCCCCCC1=C[C@H](C)OC1=O`, the GI50 in the series on MCF7 (MCF7, 74 h) turned out to be 0.26 µM; in the series with HCT-116 (HCT-116, 74 h) it was 0.11 µM; in the series with HT-29 (HT-29, 74 h) it was 0.35 µM; with SGC-7901 (SGC-7901, 74 h) it was 0.06 µM. The GI50 at 74 h in series [1] and in series [2] was more than 10 µM each time.

For `C[C@H]1C=C(CCCCCCCC(O)CN(C)CCCN(C)CC(O)CCCCCCCC2=C[C@H](C)OC2=O)C(=O)O1` (mixture of isomers), the GI50 with MCF7 (MCF7, 74 h) was 2.38 µM; in the series with HCT-116 (HCT-116, 74 h), more than 10 µM; in the series on HT-29 (HT-29, 74 h), 1.5 µM; with SGC-7901 (SGC-7901, 74 h) it was 4.12 µM. The values for the GI50 at 74 h in series [1] and in series [2] were 10.6 µM and 4.42 µM, respectively.

For `C[C@H]1C=C(CCCCCCCC(O)CNc2ccc(NCC(O)CCCCCCCC3=C[C@H](C)OC3=O)cc2)C(=O)O1` (mixture of isomers), the concentration for 50% growth inhibition (GI50) is 7.37 µM in the series on MCF7 (MCF7, 74 h); 2.49 µM in the series on HCT-116 (HCT-116, 74 h); “Not Active” in series [1]; “Not Active” in series [2]; 0.87 µM with HT-29 (HT-29, 74 h); 4.4 µM in the series on SGC-7901 (SGC-7901, 74 h).
